Measured values as given in ChEMBL document CHEMBL3885881, “DrugMatrix”.

Species: Rattus norvegicus
Test: DrugMatrix - Regimen: Daily Repeat
Format: toxicity, organism-based, Sprague-Dawley
Set-up: regimen Daily Repeat, gender Male, age 6-8 weeks
Conditions: in vivo, po, route oral GAVAGE, vehicle .5 % CMC; for ABSOLUTE BASOPHIL / ABSOLUTE EOSINOPHIL / ABSOLUTE LYMPHOCYTE / ABSOLUTE MONOCYTE / ABSOLUTE SEGMENTED NEUTROPHIL / BASOPHIL / EOSINOPHIL / ERYTHROCYTE COUNT / HEMATOCRIT / HEMOGLOBIN / LEUKOCYTE COUNT / LYMPHOCYTE / MEAN CORPUSCULAR HEMOGLOBIN / MEAN CORPUSCULAR HEMOGLOBIN CONCENTRATION / MEAN CORPUSCULAR VOLUME / MONOCYTE / NEUTROPHIL / NUCLEATED RED BLOOD CELLS / PLATELET COUNT: tissue Blood; for ALANINE AMINOTRANSFERASE / ALBUMIN / ALKALINE PHOSPHATASE / ASPARTATE AMINOTRANSFERASE / BLOOD UREA NITROGEN / CARBON DIOXIDE / CHLORIDE / CHOLESTEROL / CREATINE PHOSPHOKINASE / CREATININE / GLUCOSE / LACTATE DEHYDROGENASE / LIPASE / PHOSPHORUS / POTASSIUM / SODIUM / TOTAL BILIRUBIN / TOTAL PROTEIN / URIC ACID: tissue Plasma
[1] = 19 mg/kg, 120 h, dose level High, time 5 day
[2] = […], 72 h, dose 6.6 mg/Kg, dose level Low, time 3 day
[3] = […], 120 h, dose 6.6 mg/Kg, dose level Low, time 5 day

NCC(CC(=O)O)c1ccc(Cl)cc1 (centres undefined) [BACLOFEN]
ABSOLUTE BASOPHIL [1]: 0 CELLS/uL | ABSOLUTE EOSINOPHIL [1]: 0 CELLS/uL | ABSOLUTE LYMPHOCYTE [1]: 14854 CELLS/uL | ABSOLUTE MONOCYTE [1]: 102.67 CELLS/uL | ABSOLUTE SEGMENTED NEUTROPHIL [1]: 1043.33 CELLS/uL | BASOPHIL [1]: 0% | EOSINOPHIL [1]: 0% | ERYTHROCYTE COUNT [1]: 5.41 x10E6/uL | HEMATOCRIT [1]: 33.6% | HEMOGLOBIN [1]: 13.33 G/DL | LEUKOCYTE COUNT [1]: 16 x10E3/uL | LYMPHOCYTE [1]: 93% | MEAN CORPUSCULAR HEMOGLOBIN [1]: 24.7 pg | MEAN CORPUSCULAR HEMOGLOBIN CONCENTRATION [1]: 39.73 G/DL | MEAN CORPUSCULAR VOLUME [1]: 62.17 fL | MONOCYTE [1]: 0.67% | NEUTROPHIL [1]: 6.33% | NUCLEATED RED BLOOD CELLS [1]: 0 /100WBC | PLATELET COUNT [1]: 1022.33 x10E3/uL | ALANINE AMINOTRANSFERASE [1]: 54.67 u/L | ALBUMIN [1]: 4.1 G/DL | ALKALINE PHOSPHATASE [1]: 431.33 u/L | ASPARTATE AMINOTRANSFERASE [1]: 87.67 u/L | BLOOD UREA NITROGEN [1]: 19.67 mg/dL | CARBON DIOXIDE [1]: 26.33 mmol/L | CHLORIDE [1]: 103.67 MEQ/L | CHOLESTEROL [1]: 59.33 mg/dL | CREATINE PHOSPHOKINASE [1]: 272.67 u/L | CREATININE [1]: 0.23 mg/dL | GLUCOSE [1]: 160 mg/dL | LACTATE DEHYDROGENASE [1]: 391 u/L | LIPASE [1]: 9 u/L | PHOSPHORUS [1]: 11.13 mg/dL | POTASSIUM [1]: 6.54 MEQ/L | SODIUM [1]: 147.27 MEQ/L | TOTAL BILIRUBIN [1]: 0.3 mg/dL | TOTAL PROTEIN [1]: 5.87 G/DL | URIC ACID [1]: 1.4 mg/dL | ABSOLUTE BASOPHIL [2]: 0 CELLS/uL | ABSOLUTE EOSINOPHIL [2]: 196 CELLS/uL | ABSOLUTE LYMPHOCYTE [2]: 14434 CELLS/uL | ABSOLUTE MONOCYTE [2]: 264.67 CELLS/uL | ABSOLUTE SEGMENTED NEUTROPHIL [2]: 1038.67 CELLS/uL | BASOPHIL [2]: 0% | EOSINOPHIL [2]: 1% | ERYTHROCYTE COUNT [2]: 5.8 x10E6/uL | HEMATOCRIT [2]: 36.17% | HEMOGLOBIN [2]: 13.87 G/DL | LEUKOCYTE COUNT [2]: 15.93 x10E3/uL | LYMPHOCYTE [2]: 90.67% | MEAN CORPUSCULAR HEMOGLOBIN [2]: 24.03 pg | MEAN CORPUSCULAR HEMOGLOBIN CONCENTRATION [2]: 38.37 G/DL | MEAN CORPUSCULAR VOLUME [2]: 62.57 fL | MONOCYTE [2]: 1.67% | NEUTROPHIL [2]: 6.67% | NUCLEATED RED BLOOD CELLS [2]: 0 /100WBC | PLATELET COUNT [2]: 1144 x10E3/uL | ALANINE AMINOTRANSFERASE [2]: 51.67 u/L | ALBUMIN [2]: 4.27 G/DL | ALKALINE PHOSPHATASE [2]: 456 u/L | ASPARTATE AMINOTRANSFERASE [2]: 81.33 u/L | BLOOD UREA NITROGEN [2]: 18.33 mg/dL | CARBON DIOXIDE [2]: 27 mmol/L | CHLORIDE [2]: 100 MEQ/L | CHOLESTEROL [2]: 67 mg/dL | CREATINE PHOSPHOKINASE [2]: 351.67 u/L | CREATININE [2]: 0.23 mg/dL | GLUCOSE [2]: 153.33 mg/dL | LACTATE DEHYDROGENASE [2]: 367.67 u/L | LIPASE [2]: 10.67 u/L | PHOSPHORUS [2]: 12.53 mg/dL | POTASSIUM [2]: 7.1 MEQ/L | SODIUM [2]: 142.1 MEQ/L | TOTAL BILIRUBIN [2]: 0.2 mg/dL | TOTAL PROTEIN [2]: 5.93 G/DL | URIC ACID [2]: 1.63 mg/dL | ABSOLUTE BASOPHIL [3]: 0 CELLS/uL | ABSOLUTE EOSINOPHIL [3]: 160.33 CELLS/uL | ABSOLUTE LYMPHOCYTE [3]: 14603.33 CELLS/uL | ABSOLUTE MONOCYTE [3]: 300.67 CELLS/uL | ABSOLUTE SEGMENTED NEUTROPHIL [3]: 1335.67 CELLS/uL | BASOPHIL [3]: 0% | EOSINOPHIL [3]: 1% | ERYTHROCYTE COUNT [3]: 5.47 x10E6/uL | HEMATOCRIT [3]: 35.43% | HEMOGLOBIN [3]: 13.57 G/DL | LEUKOCYTE COUNT [3]: 16.4 x10E3/uL | LYMPHOCYTE [3]: 89% | MEAN CORPUSCULAR HEMOGLOBIN [3]: 24.8 pg | MEAN CORPUSCULAR HEMOGLOBIN CONCENTRATION [3]: 38.3 G/DL | MEAN CORPUSCULAR VOLUME [3]: 64.8 fL | MONOCYTE [3]: 1.67% | NEUTROPHIL [3]: 8.33% | NUCLEATED RED BLOOD CELLS [3]: 0 /100WBC | PLATELET COUNT [3]: 1121.33 x10E3/uL | ALANINE AMINOTRANSFERASE [3]: 51 u/L | ALBUMIN [3]: 4.23 G/DL | ALKALINE PHOSPHATASE [3]: 364.33 u/L | ASPARTATE AMINOTRANSFERASE [3]: 94.33 u/L | BLOOD UREA NITROGEN [3]: 19 mg/dL | CARBON DIOXIDE [3]: 28.33 mmol/L | CHLORIDE [3]: 100.67 MEQ/L | CHOLESTEROL [3]: 71 mg/dL | CREATINE PHOSPHOKINASE [3]: 448 u/L | CREATININE [3]: 0.15 mg/dL | GLUCOSE [3]: 140.33 mg/dL | LACTATE DEHYDROGENASE [3]: 505 u/L | LIPASE [3]: 10 u/L | PHOSPHORUS [3]: 11.6 mg/dL | POTASSIUM [3]: 6.27 MEQ/L | SODIUM [3]: 143.57 MEQ/L | TOTAL BILIRUBIN [3]: 0.23 mg/dL | TOTAL PROTEIN [3]: 6.07 G/DL | URIC ACID [3]: 1.37 mg/dL
